Measurements taken from ChEMBL document CHEMBL2034821, “Synthesis, hypoglycemic and hypolipidemic activities of novel thiazolidinedione derivatives containing thiazole/triazole/oxadiazole ring” (Eur J Med Chem, 2012).

Legend:
Rattus norvegicus [1] = test: Hypoglycemic activity in alloxan-induced diabetic Wistar rat model assessed as reduction in plasma glucose level at 3 mg/kg, po for 15 days measured on day 15; assay type: functional; set-up: scale not given: the % may be the effect or the level left
Rattus norvegicus [2] = test: Hypoglycemic activity in alloxan-induced diabetic Wistar rat model assessed as reduction in plasma glucose level at 10 mg/kg, po for 15 days measured on day 15; assay type: functional; set-up: scale not given: the % may be the effect or the level left
Rattus norvegicus [3] = test: Hypoglycemic activity in alloxan-induced diabetic Wistar rat model assessed as reduction in plasma glucose level at 30 mg/kg, po for 15 days measured on day 15; assay type: functional; set-up: scale not given: the % may be the effect or the level left
Rattus norvegicus [4] = test: Hypoglycemic activity in alloxan-induced diabetic Wistar rat model assessed as reduction in plasma glucose level at 100 mg/kg, po for 15 days measured on day 15; assay type: functional; set-up: scale not given: the % may be the effect or the level left
Rattus norvegicus [5] = test: Hypolipidemic activity in alloxan-induced diabetic Wistar rat model assessed as reduction in triglyceride level at 3 mg/kg, po for 15 days measured on day 15; assay type: functional; set-up: scale not given: the % may be the effect or the level left
Rattus norvegicus [6] = test: Hypolipidemic activity in alloxan-induced diabetic Wistar rat model assessed as reduction in triglyceride level at 10 mg/kg, po for 15 days measured on day 15; assay type: functional; set-up: scale not given: the % may be the effect or the level left
Rattus norvegicus [7] = test: Hypolipidemic activity in alloxan-induced diabetic Wistar rat model assessed as reduction in triglyceride level at 30 mg/kg, po for 15 days measured on day 15; assay type: functional; set-up: scale not given: the % may be the effect or the level left
Rattus norvegicus [8] = test: Hypolipidemic activity in alloxan-induced diabetic Wistar rat model assessed as reduction in triglyceride level at 100 mg/kg, po for 15 days measured on day 15; assay type: functional; set-up: scale not given: the % may be the effect or the level left
Rattus norvegicus [9] = test: Toxicity in Wistar rat at 3 to 100 mg/kg, po for 15 days; assay type: organism-based; set-up: dose 3-100 mg/kg, route oral; details: in vivo, 360 h

| Structure (SMILES) | Activity (Rattus norvegicus [1]) [%] | Activity (Rattus norvegicus [2]) [%] | Activity (Rattus norvegicus [3]) [%] | Activity (Rattus norvegicus [4]) [%] | Activity (Rattus norvegicus [5]) [%] | Activity (Rattus norvegicus [6]) [%] | Activity (Rattus norvegicus [7]) [%] | Activity (Rattus norvegicus [8]) [%] | Activity (Rattus norvegicus [9]) |
| --- | --- | --- | --- | --- | --- | --- | --- | --- | --- |
| O=C1NC(=O)/C(=C/c2ccc(OCCSc3nnc(Cc4ccccc4)o3)cc2)S1 | 14.23 | 16.82 | 19.08 | 23.08 | 18.52 | 20.54 | 28.02 | 34.56 | Non-toxic |
| O=C1NC(=O)/C(=C/c2ccc(OCCSc3nnc(-c4ccncc4)o3)cc2)S1 | 23.46 | 32.62 | 40 | 43.42 | 40.15 | 42.17 | 58.48 | 69.72 | Non-toxic |
| O=C1NC(=O)/C(=C/c2ccc(OCCSc3nnc(-c4ccccc4)[nH]3)cc2)S1 | 10.42 | 10.64 | 14.73 | 22.87 | 18.62 | 19.2 | 26.4 | 38.92 | Non-toxic |
| O=C1NC(=O)/C(=C/c2ccc(OCCSc3nnc(-c4ccc(Cl)cc4)[nH]3)cc2)S1 | 16.04 | 19.63 | 23.68 | 28.85 | 23.85 | 24.56 | 32.92 | 41.56 | Non-toxic |
| O=C1NC(=O)/C(=C/c2ccc(OCCSc3nnc(-c4cccnc4)o3)cc2)S1 | 24.35 | 33.16 | 39.34 | 50.09 | 40.66 | 45.1 | 60.78 | 72.32 | Non-toxic |
| CCc1ccc(CCOc2ccc(CC3SC(=O)NC3=O)cc2)nc1 (centres undefined) [PIOGLITAZONE] | 47.02 | 35.25 | 40.96 | 45.89 | 41.6 | 47.25 | 64.59 | 75.43 | – |
| O=C1NC(=O)/C(=C/c2ccc(OCCSc3nnc(-c4ccc(Br)cc4)[nH]3)cc2)S1 | 13.15 | 20.43 | 19.52 | 28.51 | 28.35 | 26.87 | 39.45 | 45.68 | Non-toxic |
| O=C1NC(=O)/C(=C/c2ccc(OCCSc3nnc(-c4ccccc4[N+](=O)[O-])[nH]3)cc2)S1 | 14.58 | 15.28 | 20.14 | 26.84 | 19.84 | 20.91 | 38.64 | 49.12 | Non-toxic |
| O=C1NC(=O)/C(=C/c2ccc(OCCSc3nnc(Cc4ccccc4)[nH]3)cc2)S1 | 18.28 | 19.36 | 28.54 | 34.38 | 22.45 | 22.81 | 38.25 | 41.87 | Non-toxic |
| O=C1NC(=O)/C(=C/c2ccc(OCCSc3nnc(-c4ccccc4)o3)cc2)S1 | 11.62 | 14.64 | 16.13 | 20.08 | 21.56 | 22.18 | 24.05 | 33.12 | Non-toxic |
| O=C1NC(=O)/C(=C/c2ccc(OCc3csc(-c4ccccc4)n3)cc2)S1 | 17.75 | 20.36 | 22.64 | 29.73 | 25.24 | 21.69 | 40.26 | 53.96 | Non-toxic |
| Cc1ccc(-c2nnc(SCCOc3ccc(/C=C4\SC(=O)NC4=O)cc3)[nH]2)cc1 | 16.87 | 20.36 | 22.64 | 29.73 | 25.24 | 21.69 | 40.26 | 53.96 | Non-toxic |
| COc1ccc(-c2nnc(SCCOc3ccc(/C=C4\SC(=O)NC4=O)cc3)[nH]2)cc1 | 41.28 | 33.62 | 40.04 | 43.42 | 43.14 | 42.63 | 59.46 | 71.24 | Non-toxic |
| Cc1nc(COc2ccc(/C=C3\SC(=O)NC3=O)cc2)cs1 | 10.42 | 10.64 | 14.73 | 22.87 | 18.62 | 19.2 | 26.4 | 38.92 | Non-toxic |
| O=C1NC(=O)/C(=C/c2ccc(OCCSc3nnc(-c4ccc([N+](=O)[O-])cc4)[nH]3)cc2)S1 | 11.92 | 13.85 | 16.02 | 18.04 | 14.12 | 15.32 | 18.56 | 22.08 | Non-toxic |
